Measurements as given in patent US20240148733A1, “COMBINATION THERAPY” (Genentech, Inc., priority 2021, published 2024).

Tests used:
Test in all cases: Drug combination assay (CellTiter-Glo cell viability)
Format in all cases: cell-based
H2030 cells (KRAS G12C) = conditions: six days, 96-wells
Experimental: (§1) Cells were seeded in either 96-well or 384-well plates 16 h before treatment at a density of 1000 cells per well. Then, cells were treated with varying concentrations of compound(s) as indicated in FIGS. 1-8 (384-wells) and FIGS. 10-105 (96-wells), either a single agent or in combination, for six days. The relative number of viable cells was estimated using CellTiter-Glo Luminescent Cell Viability Assay (Promega, G7573). Total luminescence was detected on a Wallac Multilabel Reader (Perkin-Elmer).

[1] = tested on: H358 resistant cells (KRAS G12C); conditions: six days, 96-wells
Experimental: as §1

[2] = tested on: H358 parental cells (KRAS G12C); conditions: six days, 96-wells
Experimental: as §1

H2122 cells (KRAS G12C) = conditions: six days, 384-wells
Experimental: as §1

[3] = combination with Compound K1 (a KRAS inhibitor)
[4] = combination with Compound K2 (a KRAS inhibitor)
[5] = combination with Compound K3 (a KRAS inhibitor)
[6] = combination with Compound K4 (a KRAS inhibitor)

Row | Structure (SMILES) | % inhibition of H2030 cells (KRAS G12C) (H2030 cells (KRAS G12C); [3]) | % inhibition of H2030 cells (KRAS G12C) (H2030 cells (KRAS G12C); [4]) | % inhibition of H2030 cells (KRAS G12C) (H2030 cells (KRAS G12C); [5]) | % inhibition of H2030 cells (KRAS G12C) (H2030 cells (KRAS G12C); [6]) | combination effect on cell viability (qualitative) [1, 3] | combination effect on cell viability (qualitative) [1, 4] | combination effect on cell viability (qualitative) [1, 5] | combination effect on cell viability (qualitative) [1, 6] | % inhibition of H358 parental cells (KRAS G12C) [2, 3] | % inhibition of H358 parental cells (KRAS G12C) [2, 4] | % inhibition of H358 parental cells (KRAS G12C) [2, 5] | % inhibition of H358 parental cells (KRAS G12C) [2, 6] | % inhibition of H2122 cells (KRAS G12C) (H2122 cells (KRAS G12C); [3]) | % inhibition of H2122 cells (KRAS G12C) (H2122 cells (KRAS G12C); [4])
1 | Cc1nccnc1-c1nn2c(=O)cc(-c3ccc(C4CCCCC4)cc3)[nH]c2c1C(=O)N1C[C@H](CF)[C@@H]1C (racemic) [Compound T9, 5-(4-cyclohexylphenyl)-2-(3-methylpyrazin-2-yl)-3-[rac-(2S,3S)-3-(fluoromethyl)-2-methyl-azetidine-1-carbonyl]-4H-pyrazolo[1,5-a]pyrimidin-7-one] | sensitizes cells resistant to Compound K1 | sensitizes cells resistant to Compound K2 | sensitizes cells resistant to Compound K3 | sensitizes cells resistant to Compound K4 | sensitizes cells resistant to Compound K1 | sensitizes cells resistant to Compound K2 | sensitizes cells resistant to Compound K3 | sensitizes cells resistant to Compound K4 | sensitizes cells resistant to Compound K1 | sensitizes cells resistant to Compound K2 | sensitizes cells resistant to Compound K3 | sensitizes cells resistant to Compound K4 | – | –
2 | C[C@H](NC(=O)c1ccc2c(-c3ccc(C(F)(F)F)cc3)cccc2c1)c1ccccn1 [Compound T7, N-[(1S)-1-(2-pyridyl)ethyl]-5-[4-(trifluoromethyl)phenyl]naphthalene-2-carboxamide] | sensitizes cells resistant to Compound K1 | sensitizes cells resistant to Compound K2 | sensitizes cells resistant to Compound K3 | sensitizes cells resistant to Compound K4 | sensitizes cells resistant to Compound K1 | sensitizes cells resistant to Compound K2 | sensitizes cells resistant to Compound K3 | sensitizes cells resistant to Compound K4 | sensitizes cells resistant to Compound K1 | sensitizes cells resistant to Compound K2 | sensitizes cells resistant to Compound K3 | sensitizes cells resistant to Compound K4 | – | –
3 | C=C(CNc1cc(-c2ccc(C(C)C)cc2)c2c(c1C#N)CCO2)C(=O)O [Compound T4, 2-(((4-cyano-7-(4-isopropylphenyl)-2,3-dihydrobenzofuran-5-yl)amino)methyl)acrylic acid] | – | – | – | – | – | – | – | – | – | – | – | – | sensitizes cells resistant to Compound K1 | sensitizes cells resistant to Compound K2
4 | COc1cnc(C(=O)NCc2cccc(CC(=O)N(C)CCOCCOCCOCCOCCOc3ccc4c(c3)C(=O)N(C3CCC(=O)NC3=O)C4=O)c2)cc1/C=C/[C@H]1CC[C@H](C(F)(F)F)CC1 (stereo partly drawn) [Compound T5, N-[[3-[2-[2-[2-[2-[2-[2-[2-(2,6-dioxo-3-piperidyl)-1,3-dioxo-isoindolin-5-yl]oxyethoxy]ethoxy]ethoxy]ethoxy]ethyl-methyl-amino]-2-oxo-ethyl]phenyl]methyl]-5-methoxy-4-[rac-(E)-2-[4-(trifluoromethyl)cyclohexyl]vinyl]pyridine-2-carboxamide] | sensitizes cells resistant to Compound K1 | sensitizes cells resistant to Compound K2 | sensitizes cells resistant to Compound K3 | sensitizes cells resistant to Compound K4 | sensitizes cells resistant to Compound K1 | sensitizes cells resistant to Compound K2 | sensitizes cells resistant to Compound K3 | sensitizes cells resistant to Compound K4 | sensitizes cells resistant to Compound K1 | sensitizes cells resistant to Compound K2 | sensitizes cells resistant to Compound K3 | sensitizes cells resistant to Compound K4 | – | –
5 | Cn1cc2c3cc(C(=O)O)ccc3n(-c3ccc(C(F)(F)F)cc3)c2n1 [Compound T10] | sensitizes cells resistant to Compound K1 | sensitizes cells resistant to Compound K2 | sensitizes cells resistant to Compound K3 | sensitizes cells resistant to Compound K4 | sensitizes cells resistant to Compound K1 | sensitizes cells resistant to Compound K2 | sensitizes cells resistant to Compound K3 | sensitizes cells resistant to Compound K4 | sensitizes cells resistant to Compound K1 | sensitizes cells resistant to Compound K2 | sensitizes cells resistant to Compound K3 | sensitizes cells resistant to Compound K4 | – | –
6 | CNS(=O)(=O)c1ccc(Nc2ccc(C(F)(F)F)cc2)c(-c2cn(C)cn2)c1 [Compound T8, N-methyl-3-(1-methylimidazol-4-yl)-4-[4-(trifluoromethyl)anilino]benzenesulfonamide] | sensitizes cells resistant to Compound K1 | sensitizes cells resistant to Compound K2 | sensitizes cells resistant to Compound K3 | sensitizes cells resistant to Compound K4 | sensitizes cells resistant to Compound K1 | sensitizes cells resistant to Compound K2 | sensitizes cells resistant to Compound K3 | sensitizes cells resistant to Compound K4 | sensitizes cells resistant to Compound K1 | sensitizes cells resistant to Compound K2 | sensitizes cells resistant to Compound K3 | sensitizes cells resistant to Compound K4 | – | –
7 | C[C@@H](NC(=O)c1ccc2c(Oc3ccc(C(F)(F)F)cc3)cccc2c1)c1cccc(N)n1 [Compound T6, N-[(1R)-1-(6-amino-2-pyridyl)ethyl]-5-[4-(trifluoromethyl)phenoxy]naphthalene-2-carboxamide] | sensitizes cells resistant to Compound K1 | sensitizes cells resistant to Compound K2 | sensitizes cells resistant to Compound K3 | sensitizes cells resistant to Compound K4 | sensitizes cells resistant to Compound K1 | sensitizes cells resistant to Compound K2 | sensitizes cells resistant to Compound K3 | sensitizes cells resistant to Compound K4 | sensitizes cells resistant to Compound K1 | sensitizes cells resistant to Compound K2 | sensitizes cells resistant to Compound K3 | sensitizes cells resistant to Compound K4 | – | –
8 | C=CC(=O)Nc1cnc(OC)c(/C=C/[C@H]2CC[C@H](C(F)(F)F)CC2)c1 [Compound T3, N-(6-methoxy-5-((E)-2-((1r,4r)-4-(trifluoromethyl)cyclohexyl)vinyl)pyridin-3-yl)acrylamide] | sensitizes cells resistant to Compound K1 | sensitizes cells resistant to Compound K2 | sensitizes cells resistant to Compound K3 | sensitizes cells resistant to Compound K4 | sensitizes cells resistant to Compound K1 | sensitizes cells resistant to Compound K2 | sensitizes cells resistant to Compound K3 | sensitizes cells resistant to Compound K4 | sensitizes cells resistant to Compound K1 | sensitizes cells resistant to Compound K2 | sensitizes cells resistant to Compound K3 | sensitizes cells resistant to Compound K4 | sensitizes cells resistant to Compound K1 | sensitizes cells resistant to Compound K2
